Kd and EC50 data for 17 compounds are collected here from patent US10947252B2, “Inhibitors of KEAP1-Nrf2 protein-protein interaction” (Janssen Pharmaceutica NV, priority 2018, dated 2021).

Experiment [1] deals with Kelch domain of human KEAP1 (321-624 aa) (Homo sapiens (Human), UniProt Q14145). Kind of experiment: KEAP1 KELCH ThermoFluor binding assay.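 Also: Ligand-induced melting temperature shift of E. coli-expressed KEAP1 Kelch protein, Kd estimated from concentration-response curves of ΔTm.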 The following applies: KEAP Kelch […], 1,8-ANS, pH 7.0, average of results obtained, read-out: Tf Kd.
The subject of experiment [2] is Glo-Response ARE-luc2P HEK293 cell line. Kind of experiment: ARE luciferase reporter cell-based assay.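 Also: luciferase signal tracks Nrf2 activation of the ARE once compounds disrupt KEAP1-Nrf2 binding, read with One-Glo reagent, DMSO serving as low control.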 Particulars: Homo sapiens, HEK293, 24 h, average of results obtained.

Chain of Kelch domain of human KEAP1 (321-624 aa) (Q14145 321-624): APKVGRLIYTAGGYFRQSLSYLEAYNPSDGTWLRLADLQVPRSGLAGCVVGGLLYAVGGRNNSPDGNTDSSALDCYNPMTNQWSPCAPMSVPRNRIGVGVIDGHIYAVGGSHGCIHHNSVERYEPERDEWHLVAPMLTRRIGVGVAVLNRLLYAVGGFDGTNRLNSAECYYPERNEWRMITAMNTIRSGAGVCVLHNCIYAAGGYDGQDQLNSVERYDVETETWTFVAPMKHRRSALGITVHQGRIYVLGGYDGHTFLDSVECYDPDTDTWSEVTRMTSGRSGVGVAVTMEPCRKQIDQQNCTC

On to `Cc1ccc([C@@H](c2ccn3c(C(F)F)nnc3c2C)C(C)(C)C(=O)O)cc1CN1CC2(CCOCC2)Oc2nc(OCCN3CCCC3)c(C)cc2S1(=O)=O` (single isomer, unassigned) [Example 377, (*S)-3-(3-(Difluoromethyl)-8-methyl-[1,2,4]triazolo[4,3-a]pyridine-7-yl)-2,2-dimethyl-3-(4-methyl-3-((8′-methyl-1′,1′-dioxido-7′-(2-(pyrrolidin-1-yl)ethoxy)-2,3,5,6-tetrahydrospiro[pyran-4,4′-pyrido[2,3-b][1,4,5]oxathiazepin]-2′(3′H)-yl)methyl)phenyl)propanoic Acid], for which the Kd in experiment [1] was less than 1 nM. In experiment [2], this compound gave an EC50 of 44.9 nM.
Taken in the same sequence, the figures for `Cc1ccc([C@H](CC(=O)O)c2ccn3c(C(F)(F)F)nnc3c2C)cc1CN1C[C@H]2COCCN2c2ncc(C#N)cc2S1(=O)=O` (single isomer, unassigned) [Example 196, (*S)-3-(3-(((*S)-3-Cyano-5,5-dioxido-7a,8,10,11-tetrahydro-[1,4]oxazino[3,4-d]pyrido[2,3-f][1,2,5]thiadiazepin-6(7H)-yl)methyl)-4-methylphenyl)-3-(8-methyl-3-(trifluoromethyl)-[1,2,4]triazolo[4,3-a]pyridin-7-yl)propanoic Acid] were less than 1 nM and 15 nM.
The like results for `CCn1nnc2c(C)c([C@@H](CC(=O)O)c3ccc(C)c(CN4C[C@H]5CCCN5c5ncccc5S4(=O)=O)n3)ccc21` (single isomer, unassigned) [Example 298, (*R)-3-(6-(((R)-5,5-Dioxido-7a,8,9,10-tetrahydropyrido[2,3-f]pyrrolo[2,1-d][1,2,5]thiadiazepin-6(7H)-yl)methyl)-5-methylpyridin-2-yl)-3-(1-ethyl-4-methyl-1H-benzo[d][1,2,3]triazol-5-yl)propanoic Acid] were, in that order, less than 1 nM and 21.5 nM.
Taken in the same sequence, the figures for `CCn1nnc2c(C)c([C@@H](c3cnc(C)c(CN4CC5(CCOCC5)Oc5ncc(C)cc5S4(=O)=O)c3)C(C)(C)C(=O)O)ccc21` (single isomer, unassigned) [Example 62, (*S)-3-(1-Ethyl-4-methyl-1H-benzo[d][1,2,3]triazol-5-yl)-2,2-dimethyl-3-(6-methyl-5-((8′-methyl-1′,1′-dioxido-2,3,5,6-tetrahydrospiro[pyran-4,4′-pyrido[2,3-b][1,4,5]oxathiazepin]-2′(3′H)-yl)methyl)pyridin-3-yl)propanoic Acid] were less than 1 nM and 19.2 nM.
On to `Cc1ccc(C(c2ccn3c(C(F)F)nnc3c2C)C(C)(C)C(=O)O)cc1CN1CC2(CCOCC2)Oc2ncccc2S1(=O)=O` (racemic) [Example 52, (R/S)-3-(3-(Difluoromethyl)-8-methyl-[1,2,4]triazolo[4,3-a]pyridin-7-yl)-3-(3-((1′,1′-dioxido-2,3,5,6-tetrahydrospiro[pyran-4,4′-pyrido[2,3-b][1,4,5]oxathiazepin]-2′(3′H)-yl)methyl)-4-methylphenyl)-2,2-dimethylpropanoic Acid], for which the Kd in experiment [1] is less than 1 nM. The compound further came in with an EC50 in experiment [2] of 8.2 nM.
Taken in the same sequence, the figures for `Cc1ccc(C(CC(=O)O)c2ccn3c(C(F)F)nnc3c2C)cc1CN1C[C@H]2COCCN2c2ncccc2S1(=O)=O` (stereo in doubt) [Example 460, 3-(3-(Difluoromethyl)-8-methyl-[1,2,4]triazolo[4,3-a]pyridin-7-yl)-3-(3-(((*S)-5,5-dioxido-7a,8,10,11-tetrahydro-[1,4]oxazino[3,4-d]pyrido[2,3-f][1,2,5]thiadiazepin-6(7H)-yl)methyl)-4-methylphenyl)propanoic Acid] were 2.73 nM and 119 nM.
The like results for `CCn1nnc2c(C)c([C@H](CC(=O)O)c3ccc(C)c(CN4C[C@H]5CCCN5c5ncccc5S4(=O)=O)n3)ccc21` (single isomer, unassigned) [Example 297, (*S)-3-(6-(((R)-5,5-Dioxido-7a,8,9,10-tetrahydropyrido[2,3-f]pyrrolo[2,1-d][1,2,5]thiadiazepin-6(7H)-yl)methyl)-5-methylpyridin-2-yl)-3-(1-ethyl-4-methyl-1H-benzo[d][1,2,3]triazol-5-yl)propanoic Acid] were, in that order, less than 1 nM and 6 nM.
As for `Cc1ccc([C@@H](CC(=O)O)c2ccn3c(C(F)F)nnc3c2C)cc1CN1CC2(COC2)Oc2ncccc2S1(=O)=O` (single isomer, unassigned) [Example 471, (*R)-3-(3-(Difluoromethyl)-8-methyl-[1,2,4]triazolo[4,3-a]pyridin-7-yl)-3-(3-((1′,1′-dioxidospiro[oxetane-3,4′-pyrido[2,3-b][1,4,5]oxathiazepin]-2′(3′H)-yl)methyl)-4-methylphenyl)propanoic Acid], the equilibrium dissociation constant (Kd) in experiment [1] was less than 1 nM. For the same compound, the midpoint of the response in experiment [2], the EC50, lay at 2630 nM.
The like results for `Cc1ccc(C(CC(=O)O)c2cc(OC3CC3)c3c(c2)nnn3C)cc1CN1C[C@H]2CCCN2c2ncccc2S1(=O)=O` (stereo partly drawn) [Example 4, 3-(7-Cyclopropoxy-1-methyl-1H-benzo[d][1,2,3]triazol-5-yl)-3-(3-(((R)-5,5-dioxido-7a,8,9,10-tetrahydropyrido[2,3-f]pyrrolo[2,1-d][1,2,5]thiadiazepin-6(7H)-yl)methyl)-4-methylphenyl)propanoic acid] were, in that order, 0.24 nM and 79 nM.
Taken in the same sequence, the figures for `Cc1cc2cc([C@H](CC(=O)O)c3ccc(C)c(CN4C[C@@H]5CCCN5c5ncccc5S4(=O)=O)c3)n(C)c2nn1` (single isomer, unassigned) [Example 439, (*R)-3-(3,7-Dimethyl-7H-pyrrolo[2,3-c]pyridazin-6-yl)-3-(3-(((S)-5,5-dioxido-7a,8,9,10-tetrahydropyrido[2,3-f]pyrrolo[2,1-d][1,2,5]thiadiazepin-6(7H)-yl)methyl)-4-methylphenyl)propanoic Acid] were 1.26 nM and 2440 nM.
Taken in the same sequence, the figures for `Cc1ccc([C@@H](c2ccn3c(C(F)(F)F)nnc3c2C)C(C)(C)C(=O)O)cc1CN1CC2(CC2)Oc2nc(OCCN3CCOCC3)c(C)cc2S1(=O)=O` (single isomer, unassigned) [Example 597, (*S)-2,2-dimethyl-3-(4-methyl-3-((8′-methyl-7′-(2-morpholinoethoxy)-1′,1′-dioxidospiro[cyclopropane-1,4′-pyrido[2,3-b][1,4,5]oxathiazepin]-2′,(3′H)-yl)methyl)phenyl)-3-(8-methyl-3-(trifluoromethyl)-[1,2,4]triazolo[4,3-a]pyridine-7-yl)propanoic Acid] were less than 1 nM and 2.79 nM.
For `Cc1ccc([C@@H](CC(=O)O)c2ccc3c(nnn3C3CC3)c2C)cc1CN1C[C@@]2(C)CCCN2c2ncccc2S1(=O)=O` (single isomer, unassigned) [Example 223, (*R)-3-(1-Cyclopropyl-4-methyl-1H-benzo[d][1,2,3]triazol-5-yl)-3-(4-methyl-3-(((*R)-7a-methyl-5,5-dioxido-7a,8,9,10-tetrahydropyrido[2,3-f]pyrrolo[2,1-d][1,2,5]thiadiazepin-6(7H)-yl)methyl)phenyl)propanoic Acid], in experiment [1], the Kd amounted to 190 nM. The compound also gave an EC50 in experiment [2] of 5460 nM.
The like results for `Cc1ccc([C@H](CC(=O)O)c2ccn3c(C(F)(F)F)nnc3c2C)nc1CN1CC2(COC2)Oc2ncccc2S1(=O)=O` (single isomer, unassigned) [Example 495, (*R)-3-(6-((1′,1′-Dioxidospiro[oxetane-3,4′-pyrido[2,3-b][1,4,5]oxathiazepin]-2′(3′H)-yl)methyl)-5-methylpyridin-2-yl)-3-(8-methyl-3-(trifluoromethyl)-[1,2,4]triazolo[4,3-a]pyridin-7-yl)propanoic Acid] were, in that order, less than 1 nM and 2860 nM.
The like results for `Cc1ccc([C@@H](CC(=O)O)c2ccc3c(nnn3CC3CC3)c2C(F)F)cc1CN1CC2CCCN2c2ncccc2S1(=O)=O` (stereo in doubt) [Example 68, (*R)-3-(1-(Cyclopropylmethyl)-4-(difluoromethyl-1H-benzo[d][1,2,3]triazol-5-yl)-3-(3-((R-5,5-dioxido-7a,8,9,10-tetrahydropyridi[2,3-f]pyrrolo[2,1-d][1,2,5]thiadiazepin-6(7H)-yl)methyl)-4-methylphenyl)propanoic Acid] were, in that order, 1.4 nM and 250 nM.
Taken in the same sequence, the figures for `Cc1cnc2c(c1)S(=O)(=O)N(Cc1cc([C@H](c3ccn4c(C(F)(F)F)nnc4c3C)C(C)(C)C(=O)O)ccc1C)CC1(CCNCC1)O2` (single isomer, unassigned) [Example 341, (*R)-2,2-Dimethyl-3-(4-methyl-3-((8′-methyl-1′,1′-dioxidospiro[piperidine-4,4′-pyrido[2,3-b][1,4,5]oxathiazepin]-2′(3′H)-yl)methyl)phenyl)-3-(8-methyl-3-(trifluoromethyl)-[1,2,4]triazolo[4,3-a]pyridin-7-yl)propanoic Acid] were 18800 nM and more than 20 nM.
`Cc1ccc([C@H](CC(=O)O)c2ccn3c(C(F)(F)F)nnc3c2C)cc1CN1C[C@@H]2CCCCN2c2ncccc2S1(=O)=O` (single isomer, unassigned) [Example 290, (*S)-3-(3-(((*S)-5,5-Dioxido-7,7a,8,9,10,11-hexahydro-6H-dipyrido[2,1-d:2′,3′-f][1,2,5]thiadiazepin-6-yl)methyl)-4-methylphenyl)-3-(8-methyl-3-(trifluoromethyl)-[1,2,4]triazolo[4,3-a]pyridin-7-yl)propanoic Acid]: in experiment [1], the Kd was less than 1 nM. The response in experiment [2] was half-maximal at 8.8 nM (EC50).
The like results for `Cc1ccc([C@@H](CC(=O)O)c2ccn3c(C(F)F)nnc3c2C)cc1CN1C[C@H]2CCCN2c2ncc(C#N)cc2S1(=O)=O` (single isomer, unassigned) [Example 541, (*R)-3-(3-(((*R)-3-Cyano-5,5-dioxido-7a,8,9,10-tetrahydropyrido[2,3-f]pyrrolo[2,1-d][1,2,5]thiadiazepin-6(7H)-yl)methyl)-4-methylphenyl)-3-(3-(difluoromethyl)-8-methyl-[1,2,4]triazolo[4,3-a]pyridin-7-yl)propanoic Acid] were, in that order, less than 1 nM and 223 nM.
